The values that follow come from patent US20100190848A1, “Cysteine-protease inhibitors” (UNIVERSITAT JAUME I, priority 2007, published 2010).

Assay [1] has as its system Trypanosoma brucei brucei (Tbb). Briefly: Inhibition test on Trypanosoma brucei brucei by ATP-bioluminescence. The settings on record: concentration not given. It counts as cell-based. How it is done: Inhibition tests on Trypanosoma brucei brucei were performed by ATP-bioluminescence (Z. B. Mackey et al, Chem. Biol. Drug Des. 2006, 67, pp. 355-363).
For assay [2], the target named is falcipain (FP2) (Plasmodium falciparum, UniProt Q8I6U4). The assay can be described thus: Enzymatic inhibition of recombinant falcipain (FP2), fluorogenic Z-Phe-Arg-AMC substrate. In kind it is biochemical. Here is the method: Inhibition of cysteine-proteases cruzain, rhodesain, cathepsin B (Tb CatB) and falcipain (FP2) was assessed by quantification of the resulting fluorescence emission of the proteolytic breakdown of synthetic compound Z-Phe-Arg-AMC (Bachem). Inhibitors Ia or Ib were used at concentrations ranging form 10 nM to 10.000 nM (from 500 nM to 10000 nM for Tb CatB); thus, serial dilutions in DMSO were prepared with the minimal concentration of inhibitor Ia or Ib used for calculations and at least 10 times higher than that of the enzyme. These experiments were performed by distributing inhibitor Ia or Ib in 96 wells, fluorescence was recorded on a Flex Station fluorimeter (Molecular Devices), 355 nm excitation and 460 nm emission at 25° C., distributing 100 μl of substrate using a multichannel pipette at a similar volume of the inhibitor enzyme preincubated at 25° C. for 5 minutes. In each series of experiments, the enzyme with DMSO and the enzyme in the presence of the known irreversible inhibitor K11777 (N methyl piperazine-Phe-HPhe-(CH═CHSO2 Ph)), Arris Pharmaceuticals Inc., South San Francisco, Calif.) were used as controls. […]

Assay [3] addresses rhodesain (Trypanosoma brucei rhodesiense, UniProt Q95PM0). Briefly: Enzymatic inhibition of recombinant rhodesain, fluorogenic Z-Phe-Arg-AMC substrate. In kind it is biochemical, T. Brucei. The note with it: for % inhibition (DMSO) Rhodesain: concentration not given; for activity against rhodesain (in words): summary statement. Here is the method: (§1) Inhibition of cysteine-proteases cruzain, rhodesain, cathepsin B (Tb CatB) and falcipain (FP2) was assessed by quantification of the resulting fluorescence emission of the proteolytic breakdown of synthetic compound Z-Phe-Arg-AMC (Bachem). Inhibitors Ia or Ib were used at concentrations ranging form 10 nM to 10.000 nM (from 500 nM to 10000 nM for Tb CatB); thus, serial dilutions in DMSO were prepared with the minimal concentration of inhibitor Ia or Ib used for calculations and at least 10 times higher than that of the enzyme. These experiments were performed by distributing inhibitor Ia or Ib in 96 wells, fluorescence was recorded on a Flex Station fluorimeter (Molecular Devices), 355 nm excitation and 460 nm emission at 25° C., distributing 100 μl of substrate using a multichannel pipette at a similar volume of the inhibitor enzyme preincubated at 25° C. for 5 minutes. In each series of experiments, the enzyme with DMSO and the enzyme in the presence of the known irreversible inhibitor K11777 (N methyl piperazine-Phe-HPhe-(CH═CHSO2 Ph)), Arris Pharmaceuticals Inc., South San Francisco, Calif.) were used as controls.
(§2) Enzyme inhibition data were similarly determined: recombinant cruzain at 4 nM with 5 μM of Z-Phe-Arg-AMC (Km=1 μM) in buffer A (100 mM of sodium acetate, pH 5.5 with 5 mM of DTT and 0.001% Triton-X 100 (Sigma)); recombinant rhodesain at 4 nM of enzyme and 5 μM Z-Phe-Arg-AMC (Km=1 μM) in buffer A; recombinant Tb CatB at 40 nM of enzyme and 5 μM of Z-Phe-Arg-AMC (Km=60 μM) in buffer A and recombinant FP2 at 4 nM with 5 μM of Z-Phe-Arg-AMC (Km=1 μM) in buffer A. IC50 values were determined by direct reading of the semi-log plot of reaction speed versus inhibitor concentration.

Assay [4] concerns the target cruzain (Trypanosoma cruzi, UniProt P25779). Briefly: biochemical. It counts as biochemical. The note with it: for % inhibition (DMSO) Cruzain: concentration not given; for activity against cruzain (in words): summary statement.
In assay [5] the target is cathepsin B (Tb CatB) (Trypanosoma brucei, UniProt Q6R7Z5). The assay can be described thus: Enzymatic inhibition of recombinant Tb CatB, fluorogenic Z-Phe-Arg-AMC substrate. It counts as biochemical. The settings on record: for % inhibition (DMSO) TbCat B: concentration not given; for activity against cathepsin B (in words): summary statement, said to indicate selectivity. How it is done: as §1, §2
Chain of cathepsin B (Tb CatB) (Q6R7Z5 entry or part of it): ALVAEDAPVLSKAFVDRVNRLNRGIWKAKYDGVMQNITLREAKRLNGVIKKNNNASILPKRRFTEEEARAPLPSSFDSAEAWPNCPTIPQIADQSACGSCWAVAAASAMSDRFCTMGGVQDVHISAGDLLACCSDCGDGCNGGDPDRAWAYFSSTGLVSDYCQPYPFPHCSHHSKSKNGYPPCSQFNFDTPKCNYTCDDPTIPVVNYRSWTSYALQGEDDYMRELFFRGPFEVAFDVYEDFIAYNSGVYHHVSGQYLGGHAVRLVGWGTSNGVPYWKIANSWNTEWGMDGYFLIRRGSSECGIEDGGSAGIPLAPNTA

Chain of cruzain (P25779 123-467): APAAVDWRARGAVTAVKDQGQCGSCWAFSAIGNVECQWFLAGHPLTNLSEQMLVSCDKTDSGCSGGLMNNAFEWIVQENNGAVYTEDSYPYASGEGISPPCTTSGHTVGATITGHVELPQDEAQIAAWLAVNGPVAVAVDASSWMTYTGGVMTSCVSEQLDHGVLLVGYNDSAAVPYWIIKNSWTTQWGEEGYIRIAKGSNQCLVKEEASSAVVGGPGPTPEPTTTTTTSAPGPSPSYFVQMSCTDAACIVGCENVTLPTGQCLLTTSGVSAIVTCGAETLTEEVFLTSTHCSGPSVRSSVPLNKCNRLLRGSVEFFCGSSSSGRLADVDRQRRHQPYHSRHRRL
Chain of rhodesain (Q95PM0 entry or part of it): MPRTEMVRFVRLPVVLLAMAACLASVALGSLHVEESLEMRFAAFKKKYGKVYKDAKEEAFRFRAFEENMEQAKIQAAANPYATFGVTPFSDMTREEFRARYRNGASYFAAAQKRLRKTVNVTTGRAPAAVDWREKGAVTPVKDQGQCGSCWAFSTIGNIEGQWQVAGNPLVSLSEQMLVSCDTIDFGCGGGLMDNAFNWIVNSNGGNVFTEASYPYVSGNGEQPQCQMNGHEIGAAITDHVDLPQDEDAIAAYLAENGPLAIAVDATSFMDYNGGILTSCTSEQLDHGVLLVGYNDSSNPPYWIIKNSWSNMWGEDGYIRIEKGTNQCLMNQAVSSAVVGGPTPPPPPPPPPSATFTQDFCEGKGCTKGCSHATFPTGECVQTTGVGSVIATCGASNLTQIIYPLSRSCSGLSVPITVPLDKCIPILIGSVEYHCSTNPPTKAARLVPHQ
Chain of falcipain (FP2) (Q8I6U4 244-484): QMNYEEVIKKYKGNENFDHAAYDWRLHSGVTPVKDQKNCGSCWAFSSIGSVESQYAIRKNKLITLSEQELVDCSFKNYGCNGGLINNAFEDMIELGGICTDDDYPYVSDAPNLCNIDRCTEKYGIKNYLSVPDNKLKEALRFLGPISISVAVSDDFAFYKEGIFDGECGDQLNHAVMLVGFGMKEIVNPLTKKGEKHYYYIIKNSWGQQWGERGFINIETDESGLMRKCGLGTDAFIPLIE

The term IC50 denotes the concentration at which inhibition is half-maximal. Regarding `CCOC(=O)[C@H]1O[C@@H]1C(=O)[C@H](CCc1ccccc1)NC(=O)[C@H](Cc1ccccc1)NC(=O)OCc1ccccc1` [Compound Ia.1, Ethyl (2S,3S)-3-[(2S)-2-((2S)-2-benzyloxycarbonylamino-3-phenylpropionylamino)-4-phenylbutyryl]oxirane-2-carboxylate], the “% inhibition (DMSO) Tbb” value in assay [1] came out at 42%. In assay [2], the IC50 amounted to 71 nM. Also, in assay [3], the IC50 came to 3.5 nM, the “% inhibition (DMSO) Rhodesain” value stood at 98% and the “activity against rhodesain (in words)” value was “very active”. Moreover, in assay [4], the IC50 was 20 nM, the “% inhibition (DMSO) Cruzain” value was found to be 93% and the “activity against cruzain (in words)” value was “very active”. Also, in assay [5], the IC50 is greater than 1000 nM, the “% inhibition (DMSO) TbCat B” value is recorded as 51% and the “activity against cathepsin B (in words)” value is “not against cathepsin B”.
Regarding `CCOC(=O)[C@@H]1O[C@H]1C(=O)[C@H](CCc1ccccc1)NC(=O)[C@H](Cc1ccccc1)NC(=O)OCc1ccccc1` [Compound Ib.1, Ethyl (2R,3R)-3-[(2S)-2-((2S)-2-benzyloxycarbonylamino-3-phenylpropionylamino)-4-phenylbutyryl]oxirane-2-carboxylate], the “% inhibition (DMSO) Tbb” value in assay [1] is recorded as −2%. Further, the half-maximal inhibitory concentration (IC50) in assay [2] came to 44 nM. In addition, in assay [3], the 50% inhibitory concentration (IC50) was 30 nM, the “% inhibition (DMSO) Rhodesain” value is 80% and the “activity against rhodesain (in words)” value is on record as “very active”. Besides, in assay [4], half-maximal inhibition (IC50) required 50 nM, the “% inhibition (DMSO) Cruzain” value amounted to 55% and the “activity against cruzain (in words)” value is “very active”. In addition, in assay [5], the IC50 is 400 nM, the “% inhibition (DMSO) TbCat B” value came to 47% and the “activity against cathepsin B (in words)” value was “not against cathepsin B”.
